Residues, ends and D or L forms follow the SMILES beside them.
Tested on: drug-resistant Mycobacterium tuberculosis
Conditions: 5 micrograms per ml

SMILES: CC(C)[C@H](NC(=O)[C@H](CC(=O)O)NC(=O)[C@H](CCCCN)NC(=O)[C@@H](N)CCCN=C(N)N)C(=O)N[C@@H](Cc1ccc(O)cc1)C(=O)O [Thymopentin, Arg-Lys-Asp-Val-Tyr-OH] (H-RKDVY-OH)
- % inhibition: 0.0%
